Test results published in patent US11254663B2 (BRISTOL-MYERS SQUIBB COMPANY, priority 2019, dated 2022).

Biological target: FXR (Homo sapiens (Human), UniProt Q96RI1)
Assay: FXR EC50 (FXR agonist potency reported with each Example)
Type: cell-based

Chain of FXR (Q96RI1 262-486): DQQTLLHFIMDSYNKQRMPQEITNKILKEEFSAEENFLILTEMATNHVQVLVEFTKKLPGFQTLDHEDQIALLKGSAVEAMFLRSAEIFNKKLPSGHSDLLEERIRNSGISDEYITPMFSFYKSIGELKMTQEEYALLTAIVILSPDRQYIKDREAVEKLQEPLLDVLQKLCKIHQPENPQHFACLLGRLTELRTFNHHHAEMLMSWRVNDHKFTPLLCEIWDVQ

Structure (SMILES)	EC50
CCOc1ccnc(-c2cccc(N(CC34CCC(c5nc(C6CC6)no5)(CC3)CC4)C(=O)C34CC(F)(C3)C4)c2)c1 [Example 225, N-((4-(3-cyclopropyl-1,2,4-oxadiazol-5-yl)bicyclo[2.2.2]octan-1-yl)methyl)-N-(3-(4-ethoxypyridin-2-yl)phenyl)-3-fluorobicyclo[1.1.1]pentane-1-carboxamide]	241 nM
CCOc1cc(-c2cccc(N(CC34CCC(c5nc(C6CC6)no5)(CC3)CC4)C(=O)C34CC(F)(C3)C4)c2)ccn1 [Example 226, N-((4-(3-cyclopropyl-1,2,4-oxadiazol-5-yl)bicyclo[2.2.2]octan-1-yl)methyl)-N-(3-(2-ethoxypyridin-4-yl)phenyl)-3-fluorobicyclo[1.1.1]pentane-1-carboxamide]	219 nM
CC(N(C(=O)C12CC(F)(C1)C2)c1cccc(-c2nc(C3CC3)no2)c1)C12CCC(c3nc(C4CC4)no3)(CC1)CC2 (single isomer, unassigned) [Example 217, N-(1-(4-(3-cyclopropyl-1,2,4-oxadiazol-5-yl)bicyclo[2.2.2]octan-1-yl)ethyl)-N-(3-(3-cyclopropyl-1,2,4-oxadiazol-5-yl)phenyl)-3-fluorobicyclo[1.1.1]pentane-1-carboxamide]	1440 nM
CC(C)c1nc(-c2cccc(N(CC34CCC(c5nc(C6CC6)no5)(CC3)CC4)C(=O)C34CC(F)(C3)C4)c2)no1 [Example 109, N-((4-(3-cyclopropyl-1,2,4-oxadiazol-5-yl)bicyclo[2.2.2]octan-1-yl)methyl)-3-fluoro-N-(3-(5-isopropyl-1,2,4-oxadiazol-3-yl)phenyl)bicyclo[1.1.1]pentane-1-carboxamide]	55 nM
O=C(N(CC12CCC(c3nc(C4CC4)no3)(CC1)OC2)c1cccc(-c2nc(C3CC3)no2)c1)C12CC(F)(C1)C2 [Example 196, N-((1-(3-cyclopropyl-1,2,4-oxadiazol-5-yl)-2-oxabicyclo[2.2.2]octan-4-yl)methyl)-N-(3-(3-cyclopropyl-1,2,4-oxadiazol-5-yl)phenyl)-3-fluorobicyclo[1.1.1]pentane-1-carboxamide]	205 nM
O=C(N(CC12CCC(c3nc(C4CC4)no3)(CC1)CC2)c1cccc(-c2nc(CC3CC3)no2)c1)C12CC(F)(C1)C2 [Example 65, N-((4-(3-cyclopropyl-1,2,4-oxadiazol-5-yl)bicyclo[2.2.2]octan-1-yl)methyl)-N-(3-(3-(cyclopropylmethyl)-1,2,4-oxadiazol-5-yl)phenyl)-3-fluorobicyclo[1.1.1]pentane-1-carboxamide]	142 nM
CCNC(=O)N(CC12CCC(c3nc(C4CC4)no3)(CC1)CC2)c1cccc(-c2nc(C3CC3)no2)c1 [Example 95, 1-((4-(3-cyclopropyl-1,2,4-oxadiazol-5-yl)bicyclo[2.2.2]octan-1-yl)methyl)-1-(3-(3-cyclopropyl-1,2,4-oxadiazol-5-yl)phenyl)-3-ethylurea]	590 nM
CC(C)c1nc(-c2cccc(N(CC34CCC(c5cc(C6CC6)n(C)n5)(CC3)CC4)C(=O)C34CC(F)(C3)C4)c2)no1 [Example 169, N-((4-(5-cyclopropyl-1-methyl-1H-pyrazol-3-yl)bicyclo[2.2.2]octan-1-yl)methyl)-3-fluoro-N-(3-(5-isopropyl-1,2,4-oxadiazol-3-yl)phenyl)bicyclo[1.1.1]pentane-1-carboxamide]	98 nM
CC(F)(F)c1nc(-c2cccc(N(CC34CCC(c5ccc(C(F)(F)F)cn5)(CC3)CC4)C(=O)C34CC(F)(C3)C4)c2)no1 [Example 190, N-(3-(5-(1,1-difluoroethyl)-1,2,4-oxadiazol-3-yl)phenyl)-3-fluoro-N-((4-(5-(trifluoromethyl)pyridin-2-yl)bicyclo[2.2.2]octan-1-yl)methyl)bicyclo[1.1.1]pentane-1-carboxamide]	281 nM
Cn1nc(C2CC2)cc1C12CCC(CN(C(=O)C34CC(F)(C3)C4)c3cccc(-c4noc(C5(C)CC5)n4)c3)(CC1)CC2 [Example 166, N-((4-(3-cyclopropyl-1-methyl-1H-pyrazol-5-yl)bicyclo[2.2.2]octan-1-yl)methyl)-3-fluoro-N-(3-(5-(1-methylcyclopropyl)-1,2,4-oxadiazol-3-yl)phenyl)bicyclo[1.1.1]pentane-1-carboxamide]	82 nM
CCn1cc(-c2cccc(N(CC34CCC(c5nc(C6CC6)no5)(CC3)CC4)C(=O)C34CC(F)(C3)C4)c2)oc1=O [Example 80, N-((4-(3-cyclopropyl-1,2,4-oxadiazol-5-yl)bicyclo[2.2.2]octan-1-yl)methyl)-N-(3-(3-ethyl-2-oxo-2,3-dihydrooxazol-5-yl)phenyl)-3-fluorobicyclo[1.1.1]pentane-1-carboxamide]	265 nM
CC(C)(C)c1nc(C23CCC(CN(C(=O)C45CC(F)(C4)C5)c4cccc(-c5nnc(C6CC6)o5)c4)(CC2)CC3)no1 [Example 157, N-((4-(5-(tert-butyl)-1,2,4-oxadiazol-3-yl)bicyclo[2.2.2]octan-1-yl)methyl)-N-(3-(5-cyclopropyl-1,3,4-oxadiazol-2-yl)phenyl)-3-fluorobicyclo[1.1.1]pentane-1-carboxamide]	43 nM
O=C(C1CCC(F)(F)C1)N(CC12CCC(c3nc(C4CC4)no3)(CC1)OC2)c1cccc(-c2cc(C3CC3)on2)c1 (stereo not shown) [Example 202, N-((1-(3-cyclopropyl-1,2,4-oxadiazol-5-yl)-2-oxabicyclo[2.2.2]octan-4-yl)methyl)-N-(3-(5-cyclopropylisoxazol-3-yl)phenyl)-3,3-difluorocyclopentane-1-carboxamide]	299 nM
COCc1nc(-c2cccc(N(CC34CCC(c5nc(C6CC6)no5)(CC3)CC4)C(=O)C3CC(C(F)F)C3)c2)cs1 (stereo not shown) [Example 73, N-((4-(3-cyclopropyl-1,2,4-oxadiazol-5-yl)bicyclo[2.2.2]octan-1-yl)methyl)-3-(difluoromethyl)-N-(3-(2-(methoxymethyl)thiazol-4-yl)phenyl)cyclobutane-1-carboxamide]	341 nM
O=C(N(CC12CCC(c3nc(C4CC4)no3)(CC1)OC2)c1cccc(-c2noc(C(F)F)n2)c1)C12CC(F)(C1)C2 [Example 204, N-((1-(3-cyclopropyl-1,2,4-oxadiazol-5-yl)-2-oxabicyclo[2.2.2]octan-4-yl)methyl)-N-(3-(5-(difluoromethyl)-1,2,4-oxadiazol-3-yl)phenyl)-3-fluorobicyclo[1.1.1]pentane-1-carboxamide]	371 nM
O=C(C1CCC(F)(F)C1)N(CC12CCC(c3nnc(C4CC4)o3)(CC1)CC2)c1cccc(-c2nnc(C3CC3)o2)c1 (racemic) [Example 133, N-((4-(5-cyclopropyl-1,3,4-oxadiazol-2-yl)bicyclo[2.2.2]octan-1-yl)methyl)-N-(3-(5-cyclopropyl-1,3,4-oxadiazol-2-yl)phenyl)-3,3-difluorocyclopentane-1-carboxamide]	293 nM
CC(C)(C)CNC(=O)N(CC12CCC(c3nc(C4CC4)no3)(CC1)CC2)c1cccc(-c2nc(C3CC3)no2)c1 [Example 92, 1-((4-(3-cyclopropyl-1,2,4-oxadiazol-5-yl)bicyclo[2.2.2]octan-1-yl)methyl)-1-(3-(3-cyclopropyl-1,2,4-oxadiazol-5-yl)phenyl)-3-neopentylurea]	420 nM
O=C(C1CCC1)N(CC12CCC(c3nc(C4CC4)no3)(CC1)CC2)c1cccc(-c2cnc(C3CC3)o2)c1 [Example 20, N-((4-(3-cyclopropyl-1,2,4-oxadiazol-5-yl)bicyclo[2.2.2]octan-1-yl)methyl)-N-(3-(2-cyclopropyloxazol-5-yl)phenyl)cyclobutanecarboxamide]	138 nM
COCc1nc(-c2cccc(N(CC34CCC(c5nc(C6CC6)no5)(CC3)CC4)C(=O)C34CC(F)(C3)C4)c2)cs1 [Example 72, N-((4-(3-cyclopropyl-1,2,4-oxadiazol-5-yl)bicyclo[2.2.2]octan-1-yl)methyl)-3-fluoro-N-(3-(2-(methoxymethyl)thiazol-4-yl)phenyl)bicyclo[1.1.1]pentane-1-carboxamide]	166 nM
Cc1cnc(C23CCC(CN(C(=O)C4CCC(F)(F)C4)c4cccc(-c5nc(C6CC6)no5)c4)(CC2)CC3)o1 (stereo not shown) [Example 39, N-(3-(3-cyclopropyl-1,2,4-oxadiazol-5-yl)phenyl)-3,3-difluoro-N-((4-(5-methyloxazol-2-yl)bicyclo[2.2.2]octan-1-yl)methyl)cyclopentane-1-carboxamide]	308 nM
O=C(N(CC12CCC(c3nc(C4CC4)no3)(CC1)CC2)c1cccc(-c2cnn(C(F)F)c2)c1)C12CC(F)(C1)C2 [Example 160, N-((4-(3-cyclopropyl-1,2,4-oxadiazol-5-yl)bicyclo[2.2.2]octan-1-yl)methyl)-N-(3-(1-(difluoromethyl)-1H-pyrazol-4-yl)phenyl)-3-fluorobicyclo[1.1.1]pentane-1-carboxamide]	43 nM
O=C(C1CCC(F)(F)C1)N(CC12CCC(c3nc(C4CC4)no3)(CC1)CC2)c1cccc(-c2cc(C3CC3)on2)c1 (stereo not shown) [Example 59, N-((4-(3-cyclopropyl-1,2,4-oxadiazol-5-yl)bicyclo[2.2.2]octan-1-yl)methyl)-N-(3-(5-cyclopropylisoxazol-3-yl)phenyl)-3,3-difluorocyclopentane-1-carboxamide]	70 nM
CC(C)(C)c1noc(C23CCC(CN(C(=O)C45CC(F)(C4)C5)c4cccc(-c5noc(C6(C)CC6)n5)c4)(CC2)CC3)n1 [Example 176, N-((4-(3-(tert-butyl)-1,2,4-oxadiazol-5-yl)bicyclo[2.2.2]octan-1-yl)methyl)-3-fluoro-N-(3-(5-(1-methylcyclopropyl)-1,2,4-oxadiazol-3-yl)phenyl)bicyclo[1.1.1]pentane-1-carboxamide]	24 nM
CC1(c2nc(C34CCC(CN(C(=O)C56CC(F)(C5)C6)c5cccc(-c6nnc(C7CC7)o6)c5)(CC3)CC4)no2)COC1 [Example 155, N-(3-(5-cyclopropyl-1,3,4-oxadiazol-2-yl)phenyl)-3-fluoro-N-((4-(5-(3-methyloxetan-3-yl)-1,2,4-oxadiazol-3-yl)bicyclo[2.2.2]octan-1-yl)methyl)bicyclo[1.1.1]pentane-1-carboxamide]	72 nM
CN(C)[C@H]1CCN(C(=O)N(CC23CCC(c4nc(C5CC5)no4)(CC2)CC3)c2cccc(-c3nc(C4CC4)no3)c2)C1 [Example 93, (S)—N-((4-(3-cyclopropyl-1,2,4-oxadiazol-5-yl)bicyclo[2.2.2]octan-1-yl)methyl)-N-(3-(3-cyclopropyl-1,2,4-oxadiazol-5-yl)phenyl)-3-(dimethylamino)pyrrolidine-1-carboxamide]	2690 nM
